The values that follow come from patent publication US20090137549A1, “Novel compounds useful for the treatment of degenerative & inflamatory diseases” (priority 2006, published 2009).

The target in this assay is PDE1A (Homo sapiens, UniProt P54750). Nature of the assay: PDE1A dose response, Cyclic Nucleotide Phosphodiesterase Assay Kit from Biomol (colorimetric). Type of assay: biochemical. As to conditions: purified PDE1A enzyme, 100 μM cAMP. The text has this: For the dose response and further screening, we used the Cyclic Nucleotide
Phosphodiesterase Assay Kit from Biomol, a colorimetric, non-radioactive assay. The basis for the assay is the cleavage of cAMP by PDE1A. The 5′AMP is further cleaved into the nucleoside and phosphate by the enzyme 5′-nucleotidase (catnr KI-307). The phosphate released due to enzymatic cleavage is quantified using BIOMOL GREEN™ reagent (catnr AK-111) in a modified Malachite Green assay^1,2. A PDE1A inhibitor will result in a decrease of the signal.
For the enzymatic reaction a mix of 25 μL with purified PDE1A enzyme, 100 μM cAMP, 5′Nucleotidase and the compound is made in a clear 384-plate. The reaction buffer is Tris 20 mM pH 7.4, 4 μg/mL calmodulin, 3 mM MgCl2, 1.5 mM CaCl2, 0.2 mg/mL BSA and 0.001% Brij-35. After an incubation of 45 minutes at 37° C., the reaction is stopped by the addition of 50 μL BIOMOL GREEN™ reagent. After 30 minutes incubation at room temperature, the readout is performed on the Envision (absorption at 615 nm).
All compounds are tested in duplicate starting from […] followed by a 1/3 serial dilution, 8 points (20 μM-6.67 μM-2.22 μM-740 nM-247 nM-82 nM-27 nM-9 nM) in a final concentration of 1% DMSO. As the positive dose response control compound Vardenafil is used. For the calculation of z′ and PIN values 10 μM Vardenafil is used as positive control (100% inhibition) and 1% DMSO as negative control (0% inhibition).
The following compounds have been or can be prepared according to the synthetic methods described above. For the purpose of Table 7 below, PDE1A activity of each compound, which can be determined using the assay methods described herein, is expressed as follows: […]
Usually IC50 stands for the concentration needed to halve the response being measured. `CC(C)(C)OC(=O)N1CCCC(NC(=O)N2CC(c3nc4c(cnn4C4CCCCC4)c(=O)[nH]3)C2)C1` (centres unmarked) [Example 26, tert-butyl 3-(3-(1-cyclohexyl-4-oxo-4,5-dihydro-1H-pyrazolo[3,4-d]pyrimidin-6-yl)azetidine-1-carboxamido)piperidine-1-carboxylate] came in with an IC50 of 1 to 100 nM.
In the case of `COc1cccc(S(=O)(=O)N2CCCC(c3nc4c(cnn4C4CCCCC4)c(=O)[nH]3)C2)c1` (centres unmarked) [Example 79, 1-cyclohexyl-6-(1-(3-methoxyphenylsulfonyl)piperidin-3-yl)-1H-pyrazolo[3,4-d]pyrimidin-4(5H)-one], the concentration for half-maximal inhibition (IC50) was 501 to 1000 nM.
The value for `O=c1[nH]c(C2CN(c3ncc(CN4CCOCC4)s3)C2)nc2c1cnn2C1CCCCC1` [Example 134, 1-cyclohexyl-6-(1-(5-(morpholinomethyl)thiazol-2-yl)azetidin-3-yl)-1H-pyrazolo[3,4-d]pyrimidin-4(5H)-one] was 101 to 500 nM; that for `CC(C)N1CCCC(NC(=O)N2CC(c3nc4c(cnn4C4CCCCC4)c(=O)[nH]3)C2)C1` (centres unmarked) [Example 183, 3-(1-Cyclohexyl-4-oxo-4,5-dihydro-1H-pyrazolo[3,4-d]pyrimidin-6-yl)-azetidine-1-carboxylic acid (1-isopropyl-piperidin-3-yl)-amide] was 101 to 500 nM.
The value for `Cc1nn(-c2ccccc2)c2nc(C3CCCN(C(=O)c4ccc(C#N)cc4)C3)[nH]c(=O)c12` (centres unmarked) [Example 109, 4-(3-(3-methyl-4-oxo-1-phenyl-4,5-dihydro-1H-pyrazolo[3,4-d]pyrimidin-6-yl)piperidine-1-carbonyl)benzonitrile] was 1000 to 1500 nM.
Consider `COc1ccccc1NC(=O)N1CCCC(c2nc3c(c(C)nn3C3CCCCC3)c(=O)[nH]2)C1` (centres unmarked) [Example 99, 3-(1-cyclohexyl-3-methyl-4-oxo-4,5-dihydro-1H-pyrazolo[3,4-d]pyrimidin-6-yl)-N-(2-methoxyphenyl)piperidine-1-carboxamide], for which the IC50 was in the range of 1000 to 1500 nM.
The compound `O=c1[nH]c(C2CN(c3nc4ccccc4[nH]3)C2)nc2c1cnn2C1CCCCC1` [Example 125, 1-Cyclohexyl-6-(1-(1H-benzo[d]imidazol-2-yl)azetidin-3-yl)-1H-pyrazolo[3,4-d]pyrimidin-4-(5H)-one] returned a concentration for half-maximal inhibition (IC50) of 1 to 100 nM.
Turning to `O=c1[nH]c(C2CCCN(c3ccc([N+](=O)[O-])cn3)C2)nc2c1cnn2C1CCCCC1` (centres unmarked) [Example 153, 1-cyclohexyl-6-(1-(5-nitropyridin-2-yl)piperidin-3-yl)-1H-pyrazolo[3,4-d]pyrimidin-4(5H)-one], the half-inhibitory concentration (IC50) fell in the range of 1000 to 1500 nM.
For `O=c1[nH]c(C2CN(c3nc4ccccc4o3)C2)nc2c1cnn2C1CCCCC1` [Example 130, 6-(1-(benzo[d]oxazol-2-yl)azetidin-3-yl)-1-cyclohexyl-1H-pyrazolo[3,4-d]pyrimidin-4(5H)-one], the IC50 is 101 to 500 nM.
Regarding `COc1ccc(S(=O)(=O)N2CCCC(c3nc4c(c(C)nn4-c4ccccc4)c(=O)[nH]3)C2)cc1` (centres unmarked) [Example 75, 6-(1-(4-methoxyphenylsulfonyl)piperidin-3-yl)-3-methyl-1-phenyl-1H-pyrazolo[3,4-d]pyrimidin-4(5H)-one], the IC50 lay in the range of 101 to 500 nM.
In turn, `Cc1nn(C(C)(C)C)c2nc(C3CN(C(=O)NCc4ccccc4)C3)[nH]c(=O)c12` [Example 22, N-benzyl-3-(1-tert-butyl-3-methyl-4-oxo-4,5-dihydro-1H-pyrazolo[3,4-d]pyrimidin-6-yl)azetidine-1-carboxamide] yielded a half-inhibitory concentration (IC50) of 1 to 100 nM.
In turn, `Cc1nn(C2CCCCC2)c2nc(C3CCCN(C(=O)c4ccccc4NS(C)(=O)=O)C3)[nH]c(=O)c12` (centres unmarked) [Example 181, N-{2-[3-(1-Cyclohexyl-3-methyl-4-oxo-4,5-dihydro-1H-pyrazolo[3,4-d]pyrimidin-6-yl)-piperidine-1-carbonyl]phenyl}-methanesulfonamide] yielded an IC50 of 501 to 1000 nM.
`Cc1nn(C2CCCCC2)c2nc(C3CN(C(=O)Nc4ccccc4)C3)[nH]c(=O)c12` [Example 14, 3-(1-cyclohexyl-3-methyl-4-oxo-4,5-dihydro-1H-pyrazolo[3,4-d]pyrimidin-6-yl)-N-phenylazetidine-1-carboxamide] displayed an IC50 of 1 to 100 nM.
The value for `O=C(Nc1ccc(OC(F)(F)F)cc1)N1CC(c2nc3c(cnn3C3CCCCC3)c(=O)[nH]2)C1` [Example 25, 3-(1-cyclohexyl-4-oxo-4,5-dihydro-1H-pyrazolo[3,4-d]pyrimidin-6-yl)-N-(4-(trifluoromethoxy)phenyl)azetidine-1-carboxamide] was 1 to 100 nM; that for `CC(C)(C)COC(=O)N1CC(c2nc3c(cnn3C3CCCCC3)c(=O)[nH]2)C1` [Example 122, neopentyl 3-(1-cyclohexyl-4-oxo-4,5-dihydro-1H-pyrazolo[3,4-d]pyrimidin-6-yl)azetidine-1-carboxylate] was 101 to 500 nM.
As to `COc1ccccc1C(=O)N1CCCC(c2nc3c(c(C)nn3C3CCCCC3)c(=O)[nH]2)C1` (centres unmarked) [Example 57, 1-cyclohexyl-6-(1-(2-methoxybenzoyl)piperidin-3-yl)-3-methyl-1H-pyrazolo[3,4-d]pyrimidin-4(5H)-one], the IC50 fell in the range of 101 to 500 nM.
To `CC(C)(C)n1ncc2c(=O)[nH]c(C3CN(c4ccccn4)C3)nc21` [Example 163, 1-tert-Butyl-6-(1-pyridin-2-yl-azetidin-3-yl)-1,5-dihydro-pyrazolo[3,4-d]pyrimidin-4-one] belongs 101 to 500 nM.
To `Cc1nn(C(C)(C)C)c2nc(C3CN(c4nnnn4-c4ccccc4)C3)[nH]c(=O)c12` [Example 139, 1-tert-butyl-3-methyl-6-(1-(1-phenyl-1H-tetrazol-5-yl)azetidin-3-yl)-1H-pyrazolo[3,4-d]pyrimidin-4(5H)-one] belongs 101 to 500 nM.
Turning to `CCc1nn(C2CCCCC2)c2nc(C3CN(C(=O)Nc4ccccc4OC(F)F)C3)[nH]c(=O)c12` [Example 114, 3-(1-cyclohexyl-3-ethyl-4-oxo-4,5-dihydro-1H-pyrazolo[3,4-d]pyrimidin-6-yl)-N-(2-(difluoromethoxy)phenyl)azetidine-1-carboxamide], the concentration for half-maximal inhibition (IC50) is 501 to 1000 nM.
To `CC(C)(C)c1csc(N2CC(c3nc4c(cnn4C4CCCCC4)c(=O)[nH]3)C2)n1` [Example 157, 6-(1-(4-tert-Butylthiazol-2-yl)azetidin-3-yl)-1-cyclohexyl-1H-pyrazolo[3,4-d]pyrimidin-4-(5H)-one] belongs 101 to 500 nM; to `COc1cccc(C(=O)N2CCCC(c3nc4c(cnn4C4CCCCC4)c(=O)[nH]3)C2)c1` (centres unmarked) [Example 53, 1-cyclohexyl-6-(1-(3-methoxybenzoyl)piperidin-3-yl)-1H-pyrazolo[3,4-d]pyrimidin-4(5H)-one], 101 to 500 nM.
For the compound `Cc1ccc(S(=O)(=O)N2CCCC(c3nc4c(c(C)nn4C4CCCCC4)c(=O)[nH]3)C2)cc1` (centres unmarked) [Example 86, 1-cyclohexyl-3-methyl-6-(1-(p-tolylsulfonyl)piperidin-3-yl)-1H-pyrazolo[3,4-d]pyrimidin-4(5H)-one], the IC50 lay in the range of 501 to 1000 nM.
In turn, `CN(C)c1ccc(NC(=O)N2CC(c3nc4c(cnn4C4CCCCC4)c(=O)[nH]3)C2)cc1` [Example 9, 3-(1-cyclohexyl-4-oxo-4,5-dihydro-1H-pyrazolo[3,4-d]pyrimidin-6-yl)-N-(4-(dimethylamino)phenyl)azetidine-1-carboxamide] displayed an IC50 of 1 to 100 nM.
